From patent publication US20060148858A1, “1, 2-Azole derivatives with hypoglycemic and hypolipidemic activity” (priority 2002, published 2006) come the findings set out here.

One data set deals with T1, PPARδ-RXRα heterodimer (Homo sapiens, UniProt Q03181).
T1 construct: expressed in transfected cells; host or cells: COS-1
T1 sequence (Q03181 1-441): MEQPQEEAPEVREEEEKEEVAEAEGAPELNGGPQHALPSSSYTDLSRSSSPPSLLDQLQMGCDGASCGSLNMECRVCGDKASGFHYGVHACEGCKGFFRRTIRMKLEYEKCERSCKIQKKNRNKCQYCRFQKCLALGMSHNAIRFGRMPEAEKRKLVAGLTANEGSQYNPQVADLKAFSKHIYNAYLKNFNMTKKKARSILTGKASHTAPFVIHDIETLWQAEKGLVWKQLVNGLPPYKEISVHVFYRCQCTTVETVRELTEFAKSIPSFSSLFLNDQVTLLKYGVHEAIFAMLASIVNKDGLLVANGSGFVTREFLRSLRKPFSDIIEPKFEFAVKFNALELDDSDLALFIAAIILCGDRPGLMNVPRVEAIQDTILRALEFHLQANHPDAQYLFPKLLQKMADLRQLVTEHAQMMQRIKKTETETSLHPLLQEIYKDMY
T1 sequence (P19793 1-462 partner): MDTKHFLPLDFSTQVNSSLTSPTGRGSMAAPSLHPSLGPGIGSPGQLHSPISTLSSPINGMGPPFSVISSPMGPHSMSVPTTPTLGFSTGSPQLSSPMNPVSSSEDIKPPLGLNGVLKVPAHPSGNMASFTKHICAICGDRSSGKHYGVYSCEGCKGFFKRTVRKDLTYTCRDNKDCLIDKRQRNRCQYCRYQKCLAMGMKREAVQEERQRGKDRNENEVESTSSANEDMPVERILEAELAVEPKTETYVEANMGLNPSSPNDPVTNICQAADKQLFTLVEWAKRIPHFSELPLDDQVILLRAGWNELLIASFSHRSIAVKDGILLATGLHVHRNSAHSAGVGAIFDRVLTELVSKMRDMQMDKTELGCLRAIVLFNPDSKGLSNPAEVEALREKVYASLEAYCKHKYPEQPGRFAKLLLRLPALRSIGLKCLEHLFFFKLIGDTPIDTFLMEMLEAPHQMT
Briefly: PPARδ-RXRα heterodimer ligand activity, luciferase reporter in COS-1 transformant (Test Example 4). It is filed as cell-based. As to conditions: COS-1 transformant (hPPARδ, hRXRα, reporter), 36-48 hours, concentration for 50% of the maximum fold induction. As to the method: The transformant obtained in Reference Example 9a was suspended in DMEM medium (produced by Life Technologies, Inc., USA) containing 0.1% fatty acid-free bovine serum albumin (BSA) (produced by Wako Pure Chemical Industries, Ltd.), and inoculate to each well of a 96-well white plate (produced by Corning Costar Corporation, USA) by 80 μl at 1×10^4 cells/well. Then the test compound (20 μl) was added and cultured at 37° C. under 5% CO2 for 36-48 hours. After removing the medium from the 96-well white plate, 40 μl of PIKKAGENE LT 7.5 (produced by Wako Pure Chemical Industries, Ltd.) diluted twice with HBSS (HANKS' BALANCED SALT SOLUTION)(produced by BIO WHITTAKER Inc., USA), was added. After stirring, the luciferase activity was determined using 1420 ARVO Multilabel Counter (produced by PerkinElmer Inc., USA).
A fold induction was calculated based on the luciferase activity of each test compound by taking the luciferase activity in the non-treatment group as 1. The values of the test compound concentration and the fold induction were analyzed using PRISM (produced by GraphPad Software Inc. USA) to calculate the EC50 values, the effective concentration of a test compound for 50% of the maximum fold induction.
COS-1 cells were inoculated to a 150 cm^2 cell culture flask (produced by Corning Costar Corporation, USA) at the density of 5×10^6 cells/50 ml, and cultured at 37° C. under 5% CO2 conditions for 24 hours. Subsequently, a DNA was introduced into the cell under the condition shown below using Lipofectamine (produced by Invitrogen, USA).
First, Lipofectamine (125 μl), PLUS Reagent (100 μl, produced by Invitrogen, USA), plasmid pMCMVneo-hPPARδ (2.5 μg) obtained in Reference Example 3a, plasmid pMCMVneo-hRXRα (2.5 μg) obtained in Reference Example 4a and reporter plasmid pGL3-4ERPP-TK neo (5 μg) obtained in Reference Example 5a, and pRL-tk (5 μg, produced by Promega, USA) were mixed with opti-MEM (5 ml, produced by Invitrogen, USA) to give a transfection mixture.
Then, the above-mentioned transfection mixture and opti-MEM (20 ml) were added to COS-1 cells washed with opti-MEM, and the cells were cultured at 37° C. under 5% CO2 conditions for 3 hours. DMEM medium (25 ml, produced by Life Technologies, Inc., USA) containing 0.1% fatty acid-free bovine serum albumin (BSA) (produced by Wako Pure Chemical Industries, Ltd.) was added to the obtained COS-1 cells, and the cells were cultured at 37° C. under 5% CO2 conditions for 18-24 hours to give a transformant.

Consider `CCCc1nn(-c2ccc(C(F)(F)F)cn2)cc1CCCOc1ccc(CCC(=O)O)c(OC)c1` [Example 86, 3-[2-methoxy-4-(3-{3-propyl-1-[5-(trifluoromethyl)-2-pyridyl]-1H-pyrazol-4-yl}propoxy)phenyl]propionic acid], for which the melting point lay within 114 to 115 °C. On PPARδ-RXRα heterodimer, this molecule came in with an EC50 of 1.5 nM.
For `CCOc1nn(-c2ccc(C(F)(F)F)cc2)cc1CCCOc1cccc(CC(=O)O)c1` [Example 113, [3-(3-{3-ethoxy-1-[4-(trifluoromethyl)phenyl]-1H-pyrazol-4-yl}propoxy)phenyl]acetic acid], in that order: 108 to 109 °C and 4.8 nM.
In the same order, the values of `CCCOc1nn(-c2ccc(C(F)(F)F)cn2)cc1CCCOc1ccc(CCC(=O)O)c(OCC)c1` [Example 153, 3-[2-ethoxy-4-(3-{3-propoxy-1-[5-(trifluoromethyl)-2-pyridyl]-1H-pyrazol-4-yl}propoxy)phenyl]propanoic acid] are 112 to 113 °C and 1.9 nM.
In turn, `COc1cc(CCC(=O)O)ccc1OCCCc1cn(-c2ccc(C(F)(F)F)cn2)nc1C(C)C` [Example 279, 3-[3-methoxy-4-(3-{1-[5-(trifluoromethyl)-2-pyridyl]-3-isopropyl-1H-pyrazol-4-yl}propoxy)phenyl]propanoic acid] had a melting point of 118 to 119 °C. Also, a half-maximal effect on PPARδ-RXRα heterodimer (EC50) was put at 5.1 nM.
`COc1cc(OCc2cn(-c3ccc(C(F)(F)F)cn3)nc2C)ccc1CCC(=O)O` [Example 122, 3-[2-methoxy-4-({3-methyl-1-[5-(trifluoromethyl)-2-pyridyl]-1H-pyrazol-4-yl}methoxy)phenyl]propionic acid] came in with a melting point of 158 to 159 °C. It took 4.9 nM to reach a half-maximal effect at PPARδ-RXRα heterodimer (EC50).
The molecule `CCOc1nn(-c2ccc(C(F)(F)F)cn2)cc1CCOc1ccc(CCC(=O)O)c(OC)c1` [Example 75, 3-[4-(2-{3-ethoxy-1-[5-(trifluoromethyl)-2-pyridinyl]-1H-pyrazol-4-yl}ethoxy)-2-methoxyphenyl]propanoic acid] returned a melting point of 147 to 148 °C. At PPARδ-RXRα heterodimer, this molecule displayed an EC50 of 3.8 nM.
In the same order, the values of `CCOc1nn(-c2ccc(C(F)(F)F)cn2)cc1CCOc1ccc(CCC(=O)O)c(C)c1` [Example 76, 3-[4-(2-{3-ethoxy-1-[5-(trifluoromethyl)-2-pyridinyl]-1H-pyrazol-4-yl}ethoxy)-2-methylphenyl]propanoic acid] are 117 to 119 °C and 1.9 nM.
For `CCCc1nn(-c2ccc(C(F)(F)F)cn2)cc1CCCOc1cc(CC(=O)O)cc(OC)c1` [Example 169, [3-methoxy-5-(3-{3-propyl-1-[5-(trifluoromethyl)-2-pyridyl]-1H-pyrazol-4-yl}propoxy)phenyl]acetic acid], in that order: 139 to 140 °C and 5.7 nM.
For `CCCc1nn(-c2ccc(C(F)(F)F)cn2)cc1CCCOc1ccc(CC(=O)O)c(C)c1` [Example 94, [2-methyl-4-(3-{3-propyl-1-[5-(trifluoromethyl)-2-pyridyl]-1H-pyrazol-4-yl}propoxy)phenyl]acetic acid], in that order: 134 to 135 °C and 4 nM.
In turn, `CCCc1nn(-c2ccc(C(F)(F)F)cn2)cc1CCCOc1ccc(C(C)(C)C(=O)O)cc1` [Example 157, 2-methyl-2-[4-(3-{3-propyl-1-[5-(trifluoromethyl)-2-pyridyl]-1H-pyrazol-4-yl}propoxy)phenyl]propanoic acid] displayed a melting point of 84 to 85 °C. The molecule also yielded an EC50 on PPARδ-RXRα heterodimer of 4.7 nM.
Molecule `CCCc1nn(-c2ccc(C(F)(F)F)cn2)cc1CCCOc1cc(CC(=O)O)ccc1F` [Example 91, [4-fluoro-3-(3-{3-propyl-1-[5-(trifluoromethyl)-2-pyridyl]-1H-pyrazol-4-yl}propoxy)phenyl]acetic acid] yielded a melting point of 88 to 89 °C. On PPARδ-RXRα heterodimer, this molecule came in with an EC50 of 6 nM.
For `COc1cc(CC(=O)O)ccc1OCCCc1cn(-c2ccc(C(F)(F)F)cn2)nc1C(C)C` [Example 278, [3-methoxy-4-(3-{1-[5-(trifluoromethyl)-2-pyridyl]-3-isopropyl-1H-pyrazol-4-yl}propoxy)phenyl]acetic acid], in that order: 134 to 135 °C and 6 nM.
For `CCCc1nn(-c2ccc(C(F)(F)F)cn2)cc1CCCOc1ccc(CCC(=O)O)cc1OC` [Example 96, 3-[3-methoxy-4-(3-{3-propyl-1-[5-(trifluoromethyl)-2-pyridyl]-1H-pyrazol-4-yl}propoxy)phenyl]propionic acid], in that order: 126 to 127 °C and 1.7 nM.
For `CCCc1nn(-c2ccc(C(F)(F)F)cn2)cc1CCCOc1ccc(CC(=O)O)cc1` [Example 46, [4-(3-{3-propyl-1-[5-(trifluoromethyl)-2-pyridyl]-1H-pyrazol-4-yl}propoxy)phenyl]acetic acid], in that order: 101 to 102 °C and 6.4 nM.
For `CCOc1nn(-c2ccc(C(F)(F)F)cn2)cc1CCCOc1ccc(CCC(=O)O)cc1OC` [Example 150, 3-[4-(3-{3-ethoxy-1-[5-(trifluoromethyl)-2-pyridyl]-1H-pyrazol-4-yl}propoxy)-3-methoxyphenyl]propanoic acid], the melting point is 131 to 132 °C. The molecule further had an EC50 at PPARδ-RXRα heterodimer of 2.7 nM.
For the molecule `CCCc1nn(-c2ccc(C(F)(F)F)cn2)cc1CCCOc1cccc(CC(=O)O)c1` [Example 44, [3-(3-{3-propyl-1-[5-(trifluoromethyl)-2-pyridyl]-1H-pyrazol-4-yl}propoxy)phenyl]acetic acid], the melting point was in the range of 106 to 107 °C. This molecule came in with an EC50 on PPARδ-RXRα heterodimer of 3.9 nM.
For `CCOc1ccc(CC(=O)O)cc1OCCCc1cn(-c2ccc(C(F)(F)F)cn2)nc1C(C)C` [Example 200, [4-ethoxy-3-(3-{3-isopropyl-1-[5-(trifluoromethyl)-2-pyridyl]-1H-pyrazol-4-yl}propoxy)phenyl]acetic acid], in that order: 116 to 117 °C and 5.9 nM.
`CCOc1cc(OCCCc2cn(-c3ccc(C(F)(F)F)cn3)nc2-c2ccccc2)ccc1CCC(=O)O` [Example 99, 3-[2-ethoxy-4-(3-{3-phenyl-1-[5-(trifluoromethyl)-2-pyridinyl]-1H-pyrazol-4-yl}propoxy)phenyl]propanoic acid] displayed a melting point of 135 to 136 °C. On PPARδ-RXRα heterodimer, this molecule came in with an EC50 of 0.55 nM.
In the same order, the values of `CCCc1nn(-c2ccc(C(F)(F)F)cn2)cc1CCCCOc1cccc(CC(=O)O)c1` [Example 59, [3-(4-{3-propyl-1-[5-(trifluoromethyl)-2-pyridinyl]-1H-pyrazol-4-yl}butoxy)phenyl]acetic acid] are 96 to 97 °C and 9.7 nM.
